Reference: patent US8440628B2, “Medical compositions containing ghrelin” (Daiichi Sankyo Company, Limited, priority 2002, dated 2013)

How the values were obtained:
[1] = Adsorption inhibiting effect of anti-adsorbents on human ghrelin in glass and polypropylene test tubes (Example 9); format: physicochemical; details: for Adsorption inhibiting effect: added at 0.01% or 0.1% to human ghrelin 1.0 μg/mL solution; for Human ghrelin concentration of the solution (Initial Conc. = 100): human ghrelin 1.0 μg/mL in 5% mannitol-0.05M glycine hydrochloride buffer (pH 3.5)
Description: As the anti-adsorbent, the surfactant, that is, polyoxyethylene sorbitan monooleate (hereinafter, referred to as Tween® 80), and benzalkonium chloride were selected.
The anti-adsorbent was added to this solution with 0.01% or 0.1% concentration.
The human ghrelin concentrations of each solution were measured by HPLC method right after preparation, and these solutions were replaced in glass test tubes. After that, each solution were further replaced in new glass test tubes, and same operation was repeated for 5 and 10 times, then, the human ghrelin concentrations of each treated solution were measured by HPLC method. As a control, the solution not containing anti-adsorbent was examined.
Same procedure was repeated by using test tube made by polypropylene instead of glass test tube.

[2] = Stability of human ghrelin(1-7)amide in pH-adjusted purified water at 25°C (Example 8); format: physicochemical; details: for Peak area ratio to total peak area: 25±2°C
Description: Human ghrelin(1-7)amide was dissolved in the purified water with about 0.12 μmol/mL (0.1 mg/mL). The pH of this solution was 5.0. This solution was divided into quarter, and one portion was kept alone and the pH values of the remaining three portions were adjusted to pH 1.8 (with 17 mM of hydrochloric acid), pH 4.1 (with 0.05 mM of hydrochloric acid) and pH 7.9 (with 0.20 mM of sodium hydroxide) respectively, by adding with hydrochloric acid or sodium hydroxide aqueous solution.
These four solutions were stored at 25±2° C. for 1 and 3 day, and after storage, the HPLC analyses of each solutions were conducted to calculate the peak area ratio of human ghrelin(1-7)amide, desacyl human ghrelin(1-7)amide and [3-dehydroalanine]-human ghrelin(1-7)amide to the total peak area.

[3] = compared with human ghrelin; cited from earlier work
[4] = anti-adsorbent 0.01%, Glass tube, replaced 5 times
[5] = anti-adsorbent 0.01%, Glass tube, replaced 10 times
[6] = anti-adsorbent 0.01%, Initial Conc.
[7] = anti-adsorbent 0.01%, Polypropylene tube, replaced 5 times
[8] = anti-adsorbent 0.01%, Polypropylene tube, replaced 10 times
[9] = anti-adsorbent 0.1%, Glass tube, replaced 5 times
[10] = anti-adsorbent 0.1%, Glass tube, replaced 10 times
[11] = anti-adsorbent 0.1%, Initial Conc.
[12] = anti-adsorbent 0.1%, Polypropylene tube, replaced 5 times
[13] = anti-adsorbent 0.1%, Polypropylene tube, replaced 10 times
[14] = human ghrelin(1-7)amide 0.1 mg/mL in purified water adjusted to pH 1.8 with hydrochloric acid, 1 day after
[15] = human ghrelin(1-7)amide 0.1 mg/mL in purified water adjusted to pH 1.8 with hydrochloric acid, 3 days after
[16] = human ghrelin(1-7)amide 0.1 mg/mL in purified water adjusted to pH 1.8 with hydrochloric acid, before storage
[17] = human ghrelin(1-7)amide 0.1 mg/mL in purified water adjusted to pH 4.1 with hydrochloric acid, 1 day after
[18] = human ghrelin(1-7)amide 0.1 mg/mL in purified water adjusted to pH 4.1 with hydrochloric acid, 3 days after
[19] = human ghrelin(1-7)amide 0.1 mg/mL in purified water adjusted to pH 4.1 with hydrochloric acid, before storage
[20] = human ghrelin(1-7)amide 0.1 mg/mL in purified water adjusted to pH 7.9 with sodium hydroxide, 1 day after
[21] = human ghrelin(1-7)amide 0.1 mg/mL in purified water adjusted to pH 7.9 with sodium hydroxide, 3 days after
[22] = human ghrelin(1-7)amide 0.1 mg/mL in purified water adjusted to pH 7.9 with sodium hydroxide, before storage
[23] = human ghrelin(1-7)amide 0.1 mg/mL in purified water, pH 5.0 (not adjusted), 1 day after
[24] = human ghrelin(1-7)amide 0.1 mg/mL in purified water, pH 5.0 (not adjusted), 3 days after
[25] = human ghrelin(1-7)amide 0.1 mg/mL in purified water, pH 5.0 (not adjusted), before storage

| Substance | Adsorption inhibiting effect [1] | Human ghrelin concentration of the solution (Initial Conc. = 100) [1, 4] | Human ghrelin concentration of the solution (Initial Conc. = 100) [1, 5] | Human ghrelin concentration of the solution (Initial Conc. = 100) [1, 6] | Human ghrelin concentration of the solution (Initial Conc. = 100) [1, 7] | Human ghrelin concentration of the solution (Initial Conc. = 100) [1, 8] | Human ghrelin concentration of the solution (Initial Conc. = 100) [1, 9] | Human ghrelin concentration of the solution (Initial Conc. = 100) [1, 10] | Peak area ratio to total peak area [2, 14] [%] | Peak area ratio to total peak area [2, 15] [%] | Peak area ratio to total peak area [2, 16] [%] | Peak area ratio to total peak area [2, 17] [%] | Peak area ratio to total peak area [2, 18] [%] | Peak area ratio to total peak area [2, 19] [%] | Peak area ratio to total peak area [2, 20] [%] | Peak area ratio to total peak area [2, 21] [%] | Peak area ratio to total peak area [2, 22] [%] | Peak area ratio to total peak area [2, 23] [%] | Peak area ratio to total peak area [2, 24] [%] | Peak area ratio to total peak area [2, 25] [%] | also measured |
| --- | --- | --- | --- | --- | --- | --- | --- | --- | --- | --- | --- | --- | --- | --- | --- | --- | --- | --- | --- | --- | --- |
| benzalkonium chloride | high adsorption inhibiting effect against both glass tube and polypropylene tube | 81 | 64 | 100 | 97 | 96 | 99 | 99 |  |  |  |  |  |  |  |  |  |  |  |  | Human ghrelin concentration of the solution (Initial Conc. = 100) [1, 11]: 100; Human ghrelin concentration of the solution (Initial Conc. = 100) [1, 12]: 99; Human ghrelin concentration of the solution (Initial Conc. = 100) [1, 13]: 101 |
| Human ghrelin(1-7)amide |  |  |  |  |  |  |  |  | 95.40 | 90.11 | 98.39 | 98.68 | 98.60 | 98.76 | 95.89 | 92.54 | 98.22 | 98.57 | 98.51 | 98.69 | Production of the degradation products ([2]; aqueous solution of pH 4.1 and 5.0, 25±2°C, up to 3 days): inhibited; Peak area ratio to total peak area ([2]; human ghrelin(1-7)amide 0.1 mg/mL in purified water adjusted to pH 1.8 with hydrochloric acid, 1 day after, listed as human ghrelin(1-7)amide): less than 98%; Peak area ratio to total peak area ([2]; human ghrelin(1-7)amide 0.1 mg/mL in purified water adjusted to pH 7.9 with sodium hydroxide, 1 day after, listed as human ghrelin(1-7)amide): less than 98%; pH of the solution ([2]; human ghrelin(1-7)amide dissolved in purified water, about 0.12 μmol/mL (0.1 mg/mL)): 5.0; Biological activity [3]: same biological activity as human ghrelin |
| [3-dehydroalanine]-human ghrelin(1-7)amide |  |  |  |  |  |  |  |  | 0.07 | 0.10 | 0.02 | 0.03 | 0.01 | 0.00 | 0.23 | 0.54 | 0.03 | 0.02 | 0.06 | 0.00 |  |
| desacyl human ghrelin(1-7)amide |  |  |  |  |  |  |  |  | 3.75 | 8.89 | 0.98 | 0.73 | 0.77 | 0.72 | 3.21 | 6.21 | 1.12 | 0.73 | 0.79 | 0.70 |  |
| polyoxyethylene sorbitan monooleate [Tween 80] | high adsorption inhibiting effect against polypropylene tube | 17 | 0 | 100 | 90 | 90 | 20 | 5 |  |  |  |  |  |  |  |  |  |  |  |  | Human ghrelin concentration of the solution (Initial Conc. = 100) [1, 11]: 100; Human ghrelin concentration of the solution (Initial Conc. = 100) [1, 12]: 93; Human ghrelin concentration of the solution (Initial Conc. = 100) [1, 13]: 91 |
